Source: publication PMC12636028, “Rate-Tunable, Metal-Mediated Amide Bond Cleavage for the Controlled Release of Pharmaceuticals” (Journal of the American Chemical Society, 2025)
Where two headings read alike, the source gives them in different places.

Key:
[1] = cleavage assay of cold (natural metal) model tripeptide complexes, monitored by HPLC; type: physicochemical; conditions: for kobs: Ga complex, pseudo first-order
Description: Following our previous work focused on N, O acyl shift compatible chelate conjugates, we originally sought to accelerate amide bond cleavage by N-methylation, to enhance the peptide’s leaving group character. We initiated the study by synthesis of a model tripeptide sequence which is capped at the N-terminus by the aza-macrocyclic 1,4,7-triazacyclononane-1,4,7-triacetic acid (NOTA) chelator previously identified as compatible with MMAAC. To this end, tripeptides with the sequence NO2A-X-G-W-NH2 (where X represents the variable complex adjacent amino acid) were constructed. Tryptophan (W) was incorporated as a spectroscopic handle for HPLC monitoring due to its characteristic absorbance at 280 nm, while glycine (G) was included as a short spacer amino acid to minimize the steric influence of W on the metal chelate. Subsequently, chelation with Ga^3+ yielded the corresponding model tripeptide metal complex, [Ga(NO2A)]^+-X-G-W-NH2. The Ga^3+ ion was selected as the gold-standard metal ion since it effectively triggered bond cleavage in the Ser model tripeptide in prior studies, but also formed a thermodynamically and kinetically inert, in vivo compatible metal complex. Following successful complexation and purification, the pH and reaction temperature of the metal complex solution were adjusted to pH 7.4 and 80 °C to initiate cleavage at a readily observable rate (Figure A). Reaction progress was monitored and quantified using high-performance liquid chromatography and mass spectrometry (HPLC-MS, Figure B,C). In the absence of a metal ion, all model tripeptides remained intact at all conditions and temperatures tested (Figures S113–S121). […] In the liquid chromatogram, a second peak with a longer retention time, with the same mass as the reactant, was observed. Previously, we hypothesized that this peak correlated to an intramolecular rearrangement prior to the subsequent amide bond cleavage as part of the N, O-acyl shift reaction.
3 Complex synthesis and characterization
3.1 General Complexation Protocol and Cleavage Assay Procedure
A 5 mg aliquot of the compound, 10-25, was dissolved in 500 μL of room-temperature distilled water.
Two equivalents of the natGa3+salt were added to the solution, which was left to react for 1 hour under room temperature. Full complexation was confirmed by LCMS. The complex was then purified via Sep-Pak C18 short cartridge. The concentration was determined by ICP-OES. The complexes were further characterized via HPLC and HR-ESI-MS.
Cleavage of the cold model tripeptide complexes (0.75 mM, determined by ICP-OES) was observed under 80 °C and pH 7.4. Aqueous buffer solutions were prepared using 10 mM NaOAc (pH 4.5), 10 mM […]
The complex was formed in pH 4.5 10 mM NaOAc buffer under room temperature. An aliquot of the complex was placed in an aqueous solution of the desired pH and incubated for 24 hours at 80 °C. The reaction was monitored via analytical HPLC (Method A). […]
natGallium 2,2'-(7-(2-(benzylamino)-2-oxoethyl)-1,4,7-triazonane-1,4-diyl)diacetic acid, Ga(26). […]
The concentration of Ga(NO3)3 was determined by ICP-OES. The pH of the solution was adjusted to pH = 5 by adding 4 equivalents of 1 M KOH solution. […]
natGallium 2,2'-(7-(2-(benzyl(methyl)amino)-2-oxoethyl)-1,4,7-triazonane-1,4-diyl)diacetic acid, [Ga(27)]ClO4. A 15 mg aliquot of compound 27 was dissolved in 500 μL of room temperature distilled […]
water. […]

[2] = type: in vitro ADME; conditions: mouse, plasma
Description: (§1) The cleavage of the radiolabeled conjugates was monitored
(§2) tube. […] After centrifugation at […]

[3] = type: physicochemical; conditions: buffer, pH 7.4
Description: as §1, §2

[4] = for half-life of model tripeptide: buffer, pH 7.4; for autolytic release of [67Ga]Ga(NOTA): 67Ga-radiolabeled
Description: 4.1 Radiolabeling with 68Ga and Cleavage Assay in HEPES buffer
68Ga-chloride was obtained from the University of Wisconsin Radiopharmaceutical Production Facility, at
an average specific activity of 20 mCi/mL. For radio-labeling of model tripeptides and Ahx-KuE peptide
conjugates, a 35 μL aliquot containing 0.7 mCi of 68GaCl3 was added to the ligand (10 nmol, 265 µL) in
0.067 M of sodium acetate (NaOAc) buffer pH 4.5. Radiolabeling was completed after 15 minutes at
room temperature. The pH of the solution was then adjusted to 7.4 by pH 7.4 1 M HEPES buffer.
radiolabeled conjugates were further characterized with radio-HPLC; if the radiochemical yield was
<98%, a chromatographic purification of the crude radiolabeling mixture was performed. The cleavage of
the radiolabeled conjugates was monitored via radio-HPLC at 80 °C and pH 7.4.
67Ga-citrate was purchased from Jubilant Radiopharma at an average specific activity of 140.0 MBq/mL.
The 67Ga-citrate solution was first converted to 67GaCl using an established solid phase extraction
protocol. The resulting converted 67GaCl3 fraction with the specific activity of 962 MBq/mL was used for
radiolabeling. For radio-labeling of model tripeptides and Ahx-KuE peptide conjugates, a 25 μL aliquot
containing 0.45 mCi of 67GaCl3 was added to the ligand (10 nmol, 110 µL) in 0.15 M of sodium acetate
(NaOAc) buffer pH 4.5. Radiolabeling was completed after 10 minutes at room temperature. The pH of
the solution was then adjusted to 7.4 by adding pH 7.4 1 M HEPES buffer (final concentration: 0.25 M).
The radiolabeled conjugates were further characterized with radio-HPLC; if the radiochemical yield was
the radiolabeled conjugates was monitored via radio-HPLC at 37 °C and 80 °C at pH 7.4.
For radio-labeling of model tripeptides and Ahx-KuE peptide conjugates, a 25 μL aliquot containing 0.3
mCi of 67GaCl3 was added to the ligand (10 nmol, 110 µL) in 0.15 M of sodium acetate (NaOAc) buffer
pH 4.5. Radiolabeling was completed after 10 minutes at room temperature. The radiolabeled complexes
were further characterized by radio-HPLC. The pH of the solution was then adjusted to 7.4 by adding pH
7.4 1M HEPES buffer. Into the buffered mixture was added equal volume of mouse plasma (buffered
radiolabeled complex : mouse plasma 1:1). The cleavage of the radiolabeled conjugates was monitored
via radio-HPLC at 37 °C. At each time point, an aliquot of 20 – 40 µL sample was removed from the
tube. Plasma protein was precipitated by adding 20 – 40 µL of cold acetonitrile. After centrifugation at
4000 rpm for 10 minutes, the supernatant was collected and diluted in 40 – 70 µL H2O for radio-HPLC

[5] = cleavage assays in H2O and D2O for kinetic isotopic effect; type: physicochemical; conditions: Ga complex 0.75 mM, pH 7.4 HEPES, 80 °C
Description: Therefore, we conducted additional Kinetic isotopic effect (KIE) measurements for Met (15) and ^NMeMet (18) conjugates, which were chosen to avoid alternative reaction mechanisms. Our experiments determined KIE values (1.46 for Met, 2.81 for ^NMeMet) that imply a secondary KIE, where the proton transfer is not rate-limiting (Figures S262–S265). […] Reaction rates in phosphate buffered saline (PBS) were accelerated, motivating investigation of biologically relevant systems.
5.3 Cleavage assays in H2O and D2O for kinetic isotopic effect measurement Cold cleavage assays of [Ga(15)]+ were conducted in H2O and D2O to investigate the kinetic isotopic effects. In an Eppendorf tube, Ga complexes (0.75 mM) were initially prepared in H2O according to general complexation protocol Section 3.1. The solvent was lyophilized, and the complexes were redissolved in D2O. To minimize residual H2O, the D2O was lyophilized and redissolved three times. The Ga complexes were then redissolved in D2O to a final concentration of 0.75 mM. The solution was buffered to pH 7.4 by adding pH 7.4 HEPES buffer. Cleavage reactions were performed at 80 °C and monitored by analytical HPLC.
Figure S262. Schematic description of preparation and direct complexation procedure of [natGa(15)]+.
Analytical HPLC chromatograms showing autolytic release of the product, natGa-NOTA, in H2O. The kinetics data was fit using Yt = -kt+Y0 in Excel, where Yt represents the ln([concentration of intact species]) in mM, k represents the pseudo first-order reaction rate in hour-1, t represents the incubation time in hour, and Y0 presents the ln([initial concentration of intact species]) in mM.
(1 picture or pasted object on this page, not shown here)
Cold cleavage assays of [Ga(19)]+ were conducted in H2O and D2O to investigate the kinetic isotopic […]
Figure S264. Schematic description of preparation and direct complexation procedure of [natGa(19)]+.

With “68Gallium 2,2'-(7-(2-(((2R,3S)-1-((2-(((S)-1-amino-3-(1H-indol-3-yl)-1-oxopropan-2-yl)amino)-2-oxoethyl)amino)-3-hydroxy-1-oxobutan-2-yl)amino)-2-oxoethyl)-1,4,7-triazonane-1,4-diyl)diacetate [[Ga(14)]+]” the “cleavage after 6 h” value ([1]; natGa complex, pH 7.4, 80 °C) was 50%.

For “68Gallium 2,2'-(7-(2-(((R)-1-((2-(((S)-1-amino-3-(1H-indol-3-yl)-1-oxopropan-2-yl)amino)-2-oxoethyl)amino)-1-oxopropan-2-yl)amino)-2-oxoethyl)-1,4,7-triazonane-1,4-diyl)diacetate [[Ga(12)]+]”, the “cleavage after 6 h” value ([1]; natGa complex, pH 7.4, 80 °C) was 20%.

For “68Gallium 2,2'-(7-(2-(((R)-1-((2-(((S)-1-amino-3-(1H-indol-3-yl)-1-oxopropan-2-yl)amino)-2-oxoethyl)amino)-3-hydroxy-1-oxopropan-2-yl)(methyl)amino)-2-oxoethyl)-1,4,7-triazonane-1,4-diyl)diacetate [[Ga(16)]+]”, the “half-life of model tripeptide” value [2] was 6.12 h, the “half-life of model tripeptide” value [3] was 0.22 h and the “cleaved after 1 h” value ([1]; natGa complex, pH 7.4, 80 °C, after 1 h) was 100%. For the same substance, the “half-life of model tripeptide” value [4] was 3.65 h.

With “68Gallium 2,2'-(7-(2-(((R)-1-((2-(((S)-1-amino-3-(1H-indol-3-yl)-1-oxopropan-2-yl)amino)-2-oxoethyl)amino)-3-hydroxy-1-oxopropan-2-yl)amino)-2-oxoethyl)-1,4,7-triazonane-1,4-diyl)diacetate [[Ga(13)]+]” the “half-life of model tripeptide” value [2] was 182 h, the “half-life of model tripeptide” value [3] was 5.20 h and the “half-life of model tripeptide” value [4] was 365 h.

For “68Gallium 2,2'-(7-(2-(((R)-1-((2-(((S)-1-amino-3-(1H-indol-3-yl)-1-oxopropan-2-yl)amino)-2-oxoethyl)amino)-4-(methylthio)-1-oxobutan-2-yl)(methyl)amino)-2-oxoethyl)-1,4,7-triazonane-1,4-diyl)diacetate [[Ga(18)]+]”, the “half-life of model tripeptide” value [2] was 151 h, the “half-life of model tripeptide” value [3] was 0.92 h and the “pseudo first-order reaction rate in D2O” value ([5]; D2O) was 0.16 h⁻¹. The “pseudo first-order reaction rate in H2O” value ([5]; H2O) was 0.45 h⁻¹, the “KIE (kinetic isotopic effect)” value ([5]; H2O vs D2O) was 2.81 and the krel (relative rate enhancement versus 25 mM pH 7.4 HEPES) ([1]; 25 mM HEPES, pH 7.4, 80 °C) was 1. It also gave a krel (relative rate enhancement versus 25 mM pH 7.4 HEPES) ([1]; 25 mM PBS, pH 7.4, 80 °C) of 4.4, a krel (relative rate enhancement versus 25 mM pH 7.4 HEPES) ([1]; 25 mM PIPES, pH 7.4, 80 °C) of 1.13 and a krel (relative rate enhancement versus 25 mM pH 7.4 HEPES) ([1]; 250 mM HEPES, pH 7.4, 80 °C) of 2.44. It also gave a kobs ([1]; 25 mM HEPES, pH 7.4, 80 °C) of 0.45 h⁻¹, a kobs ([1]; 25 mM PBS, pH 7.4, 80 °C) of 1.98 h⁻¹ and a kobs ([1]; 25 mM PIPES, pH 7.4, 80 °C) of 0.51 h⁻¹. The kobs ([1]; 250 mM HEPES, pH 7.4, 80 °C) was 1.10 h⁻¹ and the “half-life of model tripeptide” value [4] was 28.1 h.

For “68Gallium (R)-2,2'-(7-(2-((2-((2-((1-amino-3-(1H-indol-3-yl)-1-oxopropan-2-yl)amino)-2-oxoethyl)amino)-2-oxoethyl)amino)-2-oxoethyl)-1,4,7-triazonane-1,4-diyl)diacetate [[Ga(10)]+]”, the “half-life of model tripeptide” value [2] was “not observed”, the “half-life of model tripeptide” value [3] was “not obser ved” and the “hydrolysis of the Ga complex” value ([1]; pH 4.5, 80 °C) was “hydrolyzed”. For the same substance, the “hydrolysis of the Ga complex” value ([1]; pH > 5, 80 °C) was “inert”, the “autolytic release of [67Ga]Ga(NOTA)” value ([4]; 37 °C and pH 7.4) was “no significant autolytic release” and the “autolytic release of [67Ga]Ga(NOTA)” value ([4]; 80 °C and pH 7.4) was “no significant autolytic release”. For the same substance, the “half-life of model tripeptide” value [4] was “not observed”.
